Converted amounts (≈) assume the structure as drawn.
Key:
[1] = test system: Enterococcus faecalis NCTC 12201 (DRCC 153, R); experiment: MIC by broth microdilution, Enterococcus sp 153 R; format: cell-based; details: NCTC12201, Enterococcus DRCC 153 (E. faecalis NCTC 12201), read-out: Antimicrobial Screening (MIC) Enterococcus sp 153 R
Protocol: (§1) Minimum Inhibiton Concentrations (MICs) were determined by broth microdilution technique as per the guidelines prescribed in the fifth edition of Approved Standards, NCCLS document M7-A5 Vol 20-No 2, 2000 Villinova, Pa.
(§2) Initial stock solution of the test compound was prepared in DMSO. Subsequent two fold dilutions were carried out in sterile Mueller Hinton Broth (Difco) (MHB).
(§3) Frozen cultures stocks were inoculated into 50 ml sterile MHB in 250 ml Erlyn Meyer flasks. • Composition of MHB is as follows: • Beef Extract Powder—2.0 grams/litre • Acid Digest of Casein—17.5 grams/litre • Soluble Starch—1.5 grams/litre • Final pH 7.3±0.1
(§4) Flasks were incubated for 4 to 5 hours at 35° C. on a rotary shaker at 150 rpm. Inoculum was prepared by diluting the culture in sterile MHB to obtain a turbidity of 0.5 McFarland standard. This corresponds to 1-2×10^8 CFU/ml. The stock was further diluted in sterile broth to obtain 1-2×10^6 CFU/ml. 50 μl of the above diluted inoculum was added from 1-10 wells. The plates were incubated overnight at 37° C.

[2] = test system: Salmonella TA97; experiment: MIC by broth microdilution, Salmonella TA97; format: cell-based; details: read-out: Antimicrobial Screening (MIC) Salmonella TA97
Protocol: as §1, §2, §3, §4

[3] = test system: Staphylococcus aureus ATCC 29213 (DRCC 035, S); experiment: MIC by broth microdilution, Staphylococcus aureus 035 S; format: cell-based; details: ATCC29213, Staphylococcus aureus DRCC 035 (ATCC 29213), read-out: Antimicrobial Screening (MIC) Staphylococcus aureus 035 S
Protocol: as §1, §2, §3, §4

[4] = test system: Enterococcus faecalis ATCC 29212 (DRCC 034, S); experiment: MIC by broth microdilution, Enterococcus sp 034 S; format: cell-based; details: ATCC29212, Enterococcus DRCC 034 (E. faecalis ATCC 29212), read-out: Antimicrobial Screening (MIC) Enterococcus sp 034 S
Protocol: as §1, §2, §3, §4

[5] = test system: Staphylococcus aureus ATCC 33591 (DRCC 019, MRSA); experiment: MIC by broth microdilution, Staphylococcus aureus 019 MRSA; format: cell-based; details: Staphylococcus aureus DRCC 019 (ATCC 33591), read-out: Antimicrobial Screening (MIC) Staphylococcus aureus 019 MRSA
Protocol: as §1, §2, §3, §4

[6] = test system: Mycobacterium MTCC006; experiment: MIC by broth microdilution, Mycobacterium MTCC006; format: cell-based; details: read-out: Antimicrobial Screening (MIC) Mycobacterium MTCC006
Protocol: as §1, §2, §3, §4

[7] = test system: Enterococcus faecium NCTC 12202 (DRCC 154, R); experiment: MIC by broth microdilution, Enterococcus sp 154 R; format: cell-based; details: NCTC12202, Enterococcus DRCC 154 (E. faecium NCTC 12202), read-out: Antimicrobial Screening (MIC) Enterococcus sp 154 R
Protocol: as §1, §2, §3, §4

[8] = test system: Staphylococcus aureus ATCC 49951 (DRCC 213, Smith S); experiment: MIC by broth microdilution, Staphylococcus aureus 213 Smith S; format: cell-based; details: ATCC49951, Staphylococcus aureus DRCC 213 (ATCC 49951), read-out: Antimicrobial Screening (MIC) Staphylococcus aureus 213 Smith S
Protocol: as §1, §2, §3, §4

Row | melting point [°C] | Structure (SMILES) | MIC [1] [µg/mL] | MIC [2] [µg/mL] | MIC [3] [µg/mL] | MIC [4] [µg/mL] | MIC [5] [µg/mL] | MIC [6] [µg/mL] | MIC [7] [µg/mL] | MIC [8] [µg/mL]
1 | 160 to 162 | COC(=S)NCc1cn(-c2ccc(-n3ccc(C=O)c3)cc2)nn1 [Example 2, {1-[4-(3-Formyl-pyrrol-1-yl)-phenyl]-1H-[1,2,3]triazol-4-ylmethyl}-thiocarbamic acid O methyl ester] | – | – | – | – | – | – | – | –
2 | 165 to 167 | COC(=S)NCc1cn(-c2ccc(-n3ccnc3)c(F)c2)nn1 [Example 10, [1-(3-Fluoro-4-imidazol-1-yl-phenyl)-1H-[1,2,3]triazol-4-ylmethyl]-thiocarbamic acid O-methyl ester] | – | – | – | – | – | – | – | –
3 | 210 to 215 | CC(=O)NCc1cn(-c2ccc(-n3cccc3)c(F)c2)nn1 [Example 22, N-[1-(3-Fluoro-4-pyrrol-1-yl-phenyl)-1H-[1,2,3]triazol-4-ylmethyl]-acetamide] | – | – | – | – | – | – | – | –
4 | 185 | CC(=S)NCc1cn(-c2ccc(-n3ccnc3)c(F)c2)nn1 [Example 24, N-[1-(3-Fluoro-4-imidazol-1-yl-phenyl)-1H-[1,2,3]triazol-4-ylmethyl]-thioacetamide] | – | – | – | – | – | – | – | –
5 | 223 | CC(=O)NCc1cn(-c2ccc(-n3cncn3)c(F)c2)nn1 [Example 25, N-[1-(3-Fluoro-4-[1,2,4]triazol-1-yl-phenyl)-1H-[1,2,3]triazol-4-ylmethyl]-acetamide] | – | – | – | – | – | – | – | –

The remaining lines, values behind:

Row | Structure (SMILES) | melting point [°C] | MIC [1] [µg/mL] | MIC [2] [µg/mL] | MIC [3] [µg/mL] | MIC [4] [µg/mL] | MIC [5] [µg/mL] | MIC [6] [µg/mL] | MIC [7] [µg/mL] | MIC [8] [µg/mL]
6 | COC(=S)NCc1cn(-c2ccc(-n3cccc3)cc2)nn1 [Example 1, [1-(4-Pyrrol-1-yl-phenyl)-1H-[1,2,3]triazol-4-ylmethyl]-thiocarbamic acid O-methyl ester] | 150 | – | – | – | – | – | – | – | –
7 | COC(=S)NCc1cn(-c2cc(F)c(-n3ccc(C#N)c3)c(F)c2)nn1 [Example 8, {1-[4-(3-Cyano-pyrrol-1-yl)-3,5-difluoro-phenyl]-1H-[1,2,3]triazol-4-ylmethyl}-thiocarbamic acid O-methyl ester] | – | 0.5 (≈ 1.34 µM) | 32 (≈ 85.5 µM) | 1 (≈ 2.67 µM) | 0.5 (≈ 1.34 µM) | 0.5 (≈ 1.34 µM) | 32 (≈ 85.5 µM) | 0.5 (≈ 1.34 µM) | 0.5 (≈ 1.34 µM)
8 | COC(=S)NCc1cn(-c2cc(F)c(-n3ccnc3)c(F)c2)nn1 [Example 9, [1-(3,5-Difluoro-4-imidazol-1-yl-phenyl)-1H-[1,2,3]triazol-4-ylmethyl]-thiocarbamic acid O-methyl ester] | 180 | 1 (≈ 2.85 µM) | 32 (≈ 91.3 µM) | 1 (≈ 2.85 µM) | 2 (≈ 5.71 µM) | 1 (≈ 2.85 µM) | 4 (≈ 11.4 µM) | 2 (≈ 5.71 µM) | 1 (≈ 2.85 µM)
9 | COC(=S)NCc1cn(-c2ccc(-n3cncn3)c(F)c2)nn1 [Example 20, [1-(3-Fluoro-4-[1,2,4]triazol-1-yl-phenyl)-1H-[1,2,3]triazol-4-yl-methyl]-thiocarbamic acid O-methyl ester] | 179 | 32 (≈ 96 µM) | 32 (≈ 96 µM) | 16 (≈ 48 µM) | 32 (≈ 96 µM) | 8 (≈ 24 µM) | 16 (≈ 48 µM) | 32 (≈ 96 µM) | 16 (≈ 48 µM)
10 | COC(=S)NCc1cn(-c2ccc(-n3cnc(CO)c3)c(F)c2)nn1 [Example 27, {1-[3-Fluoro-4-(4-hydroxymethyl-imidazol-1-yl)-phenyl]-1H-[1,2,3]triazol-4-ylmethyl}-thiocarbamic acid O-methyl ester] | 179 | 1 (≈ 2.76 µM) | 32 (≈ 88.3 µM) | 1 (≈ 2.76 µM) | 2 (≈ 5.52 µM) | 1 (≈ 2.76 µM) | 16 (≈ 44.2 µM) | 2 (≈ 5.52 µM) | 1 (≈ 2.76 µM)

Reference: patent publication US20060270628A1, “Antiinfective 1,2,3-triazole derivatives, process for their preparation and pharmaceutical compositions containing them” (priority 2003, published 2006)
